Assay results: patent US9695133B2, “Quinazolinone-based oncogenic-RAS-selective lethal compounds and their use” (THE TRUSTEES OF COLUMBIA UNIVERSITY IN THE CITY OF NEW YORK, priority 2012, dated 2017)

Tested on: HT-1080 cells
Assay: Metabolite profiling (LC-MS/MS) upon erastin treatment
Type: cell-based, human
Conditions: 5 μg/mL erastin 5 h
Description: 2 million HT-1080 cells were seeded in 10 cm culture dishes. […] 4 mL of cold 80% methanol was added to the cell monolayer to extract polar metabolites using a cell scraper. The cell lysate/methanol mixture was transferred to a 15 mL tube and centrifuged at 2,000×g at 4° C. for 10 minutes to pellet debris and proteins. The supernatant was transferred to a new tube and stored at −80° C. for liquid chromatography-mass spectrometry/mass spectrometry (LC-MS/MS) analysis. For lipid extract preparation, 3 mL of cold 100% isopropanol was added to the cell monolayer to scrape out cells. The resulting cell lysate/isopropanol mixture was transferred to a new 15 mL tube and centrifuged at 2,000×g at 4° C. for 10 minutes. The cleared supernatant was transferred to a new tube and stored at −20° C. for LC-MS/MS analysis.
The metabolite extract was subjected to LC-MS/MS analysis to determine the quantity of each metabolite in each sample.

SMILES: CCOc1ccccc1-n1c(C(C)N2CCN(C(=O)COc3ccc(Cl)cc3)CC2)nc2ccccc2c1=O (stereo not drawn) [erastin]
- guanosine Erastin/DMSO: 4.51
- guanosine log2 (Erastin/DMSO): 2.173
- hippurate Erastin/DMSO: 1.005
- hippurate log2 (Erastin/DMSO): 0.007657
- histamine Erastin/DMSO: 0.9526
- histamine log2 (Erastin/DMSO): −0.07002
- histidine Erastin/DMSO: 0.9779
- histidine log2 (Erastin/DMSO): −0.03228
- hydroxyphenylacetate Erastin/DMSO: 1.024
- hydroxyphenylacetate log2 (Erastin/DMSO): 0.03431
- hypoxanthine Erastin/DMSO: 0.9819
- hypoxanthine log2 (Erastin/DMSO): −0.02629
- indoxylsulfate Erastin/DMSO: 0.7913
- indoxylsulfate log2 (Erastin/DMSO): −0.3377
- inosine Erastin/DMSO: 1.867
- inosine log2 (Erastin/DMSO): 0.9005
- isocitrate Erastin/DMSO: 1.051
- isocitrate log2 (Erastin/DMSO): 0.07189
- isoleucine Erastin/DMSO: 0.9526
- isoleucine log2 (Erastin/DMSO): −0.07
- isomer_of_erythrose-4-phosphate Erastin/DMSO: 0.5887
- isomer_of_erythrose-4-phosphate log2 (Erastin/DMSO): −0.7644
- kynurenic acid Erastin/DMSO: 0.8322
- kynurenic acid log2 (Erastin/DMSO): −0.265
- kynurenine Erastin/DMSO: 1.04
- kynurenine log2 (Erastin/DMSO): 0.05699
- lactate Erastin/DMSO: 0.884
- lactate log2 (Erastin/DMSO): −0.1779
- leucine Erastin/DMSO: 0.9497
- leucine log2 (Erastin/DMSO): −0.07444
- lysine Erastin/DMSO: 0.9654
- lysine log2 (Erastin/DMSO): −0.05081
- malate Erastin/DMSO: 1.143
- malate log2 (Erastin/DMSO): 0.1934
- maleate/3-methyl-2-oxobutanoate Erastin/DMSO: 0.9484
- maleate/3-methyl-2-oxobutanoate log2 (Erastin/DMSO): −0.07647
- malonate Erastin/DMSO: 1.025
- malonate log2 (Erastin/DMSO): 0.03595
- methionine Erastin/DMSO: 0.9702
- methionine log2 (Erastin/DMSO): −0.04361
- niacinamide Erastin/DMSO: 0.9289
- niacinamide log2 (Erastin/DMSO): −0.1065
- nicotinate Erastin/DMSO: 1.085
- nicotinate log2 (Erastin/DMSO): 0.1179
- ornithine Erastin/DMSO: 0.9482
- ornithine log2 (Erastin/DMSO): −0.07676
- orotate Erastin/DMSO: 1.138
- orotate log2 (Erastin/DMSO): 0.1864
- oxalate Erastin/DMSO: 1.019
- oxalate log2 (Erastin/DMSO): 0.02659
- pantothenate Erastin/DMSO: 1.194
- pantothenate log2 (Erastin/DMSO): 0.2564
- phenylacetylglycine Erastin/DMSO: 1.135
- phenylacetylglycine log2 (Erastin/DMSO): 0.1828
- phenylalanine Erastin/DMSO: 1.005
- phenylalanine log2 (Erastin/DMSO): 0.007013
- phosphocholine Erastin/DMSO: 0.5252
- phosphocholine log2 (Erastin/DMSO): −0.9291
- phosphocreatine Erastin/DMSO: 1.173
- phosphocreatine log2 (Erastin/DMSO): 0.2302
- phosphoglycerate Erastin/DMSO: 0.9848
- phosphoglycerate log2 (Erastin/DMSO): −0.02206
- phosphotyrosine Erastin/DMSO: 0.6533
- phosphotyrosine log2 (Erastin/DMSO): −0.6143
- pimelate/3-methyladipate Erastin/DMSO: 1.021
- pimelate/3-methyladipate log2 (Erastin/DMSO): 0.03006
- proline Erastin/DMSO: 1.086
- proline log2 (Erastin/DMSO): 0.1195
- proprionate Erastin/DMSO: 1.092
- proprionate log2 (Erastin/DMSO): 0.1269
- pyruvate Erastin/DMSO: 1.283
- pyruvate log2 (Erastin/DMSO): 0.3592
- quinolinate Erastin/DMSO: 1.015
- quinolinate log2 (Erastin/DMSO): 0.02178
- ribose-5-P Erastin/DMSO: 1.113
- ribose-5-P log2 (Erastin/DMSO): 0.155
- ribulose-5-P Erastin/DMSO: 1.051
- ribulose-5-P log2 (Erastin/DMSO): 0.07112
- salicylurate Erastin/DMSO: 0.9637
- salicylurate log2 (Erastin/DMSO): −0.05339
- sebacate Erastin/DMSO: 0.9419
- sebacate log2 (Erastin/DMSO): −0.08641
- serine Erastin/DMSO: 1.053
- serine log2 (Erastin/DMSO): 0.07514
- serotonin Erastin/DMSO: 0.7924
- serotonin log2 (Erastin/DMSO): −0.3357
- sorbitol Erastin/DMSO: 0.9709
- sorbitol log2 (Erastin/DMSO): −0.04258
- suberate Erastin/DMSO: 1.003
- suberate log2 (Erastin/DMSO): 0.004641
- succinate/methylmalonate Erastin/DMSO: 1.008
- succinate/methylmalonate log2 (Erastin/DMSO): 0.01178
- sucrose Erastin/DMSO: 1.408
- sucrose log2 (Erastin/DMSO): 0.4939
- taurine Erastin/DMSO: 0.8259
- taurine log2 (Erastin/DMSO): −0.276
- taurochenodeoxycholate Erastin/DMSO: 1.181
- taurochenodeoxycholate log2 (Erastin/DMSO): 0.2399
- taurocholate Erastin/DMSO: 1.108
- taurocholate log2 (Erastin/DMSO): 0.1484
- taurodeoxycholate Erastin/DMSO: 1.168
- taurodeoxycholate log2 (Erastin/DMSO): 0.2237
- taurolithocholate Erastin/DMSO: 1.093
- taurolithocholate log2 (Erastin/DMSO): 0.1287
- thiamine Erastin/DMSO: 0.9385
- thiamine log2 (Erastin/DMSO): −0.09157
- threonine Erastin/DMSO: 0.9924
- threonine log2 (Erastin/DMSO): −0.01095
- thymidine Erastin/DMSO: 1.402
- thymidine log2 (Erastin/DMSO): 0.4879
- thymine Erastin/DMSO: 1.257
- thymine log2 (Erastin/DMSO): 0.3302
- thyroxine Erastin/DMSO: 0.8859
- thyroxine log2 (Erastin/DMSO): −0.1748
- triiodothyronine Erastin/DMSO: 0.8066
- triiodothyronine log2 (Erastin/DMSO): −0.31
- trimethylamine-N-oxide Erastin/DMSO: 1.222
- trimethylamine-N-oxide log2 (Erastin/DMSO): 0.2895
- tryptophan Erastin/DMSO: 0.9911
- tryptophan log2 (Erastin/DMSO): −0.01285
- tyrosine Erastin/DMSO: 0.9821
- tyrosine log2 (Erastin/DMSO): −0.02607
- urate Erastin/DMSO: 1.018
- urate log2 (Erastin/DMSO): 0.0257
- uridine Erastin/DMSO: 4.369
- uridine log2 (Erastin/DMSO): 2.127
- valine Erastin/DMSO: 0.9822
- valine log2 (Erastin/DMSO): −0.02594
- xanthine Erastin/DMSO: 1.027
- xanthine log2 (Erastin/DMSO): 0.03817
- xanthosine Erastin/DMSO: 0.98
- xanthosine log2 (Erastin/DMSO): −0.02909
